According to US20150031674A1, “SERINE/THREONINE KINASE INHIBITORS” (GENENTECH, INC., priority 2013, published 2015):

Molecular target: human recombinant PAK1-KD protein (Homo sapiens, UniProt Q13153)
Test: PAK1-KD (Kinase Domain) IC50 Zlyte Assay (FRET peptide substrate phosphorylation)
Conditions: Z'-LYTE, Biological Example 1

Sequence of human recombinant PAK1-KD protein (Q13153 270-521 limits assumed): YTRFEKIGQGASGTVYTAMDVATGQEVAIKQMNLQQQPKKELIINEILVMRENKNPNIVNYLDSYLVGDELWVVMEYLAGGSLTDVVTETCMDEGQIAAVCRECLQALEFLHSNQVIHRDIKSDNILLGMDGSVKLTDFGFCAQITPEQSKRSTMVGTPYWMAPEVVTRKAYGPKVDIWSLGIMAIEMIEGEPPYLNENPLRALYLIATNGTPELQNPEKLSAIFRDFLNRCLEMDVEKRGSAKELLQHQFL

Compound: CNc1ncc2cc(-c3ccc(-c4cncc(C)n4)cc3Cl)c(=O)n(CC(=O)N3CCC[C@@H]3CN)c2n1 [Example I-153, 8-[2-[(2R)-2-(Aminomethyl)pyrrolidin-1-yl]-2-oxo-ethyl]-6-[2-chloro-4-(6-methylpyrazin-2-yl)phenyl]-2-(methylamino)pyrido[2,3-d]pyrimidin-7-one]
- Ki: 8.5 nM

Compound: CNc1ncc2cc(-c3ccc(-c4cncc(C)n4)cc3Cl)c(=O)n(CC(=O)N3CCC[C@H]3CN)c2n1 [Example I-154, 8-[2-[(2S)-2-(Aminomethyl)pyrrolidin-1-yl]-2-oxo-ethyl]-6-[2-chloro-4-(6-methylpyrazin-2-yl)phenyl]-2-(methylamino)pyrido[2,3-d]pyrimidin-7-one]
- Ki: 39.4 nM

Compound: CNc1ncc2cc(-c3ccc(-c4cncc(C)n4)cc3Cl)c(=O)n(CC(=O)N[C@@H]3CCNC3)c2n1 [Example I-151, 2-[6-[2-Chloro-4-(6-methylpyrazin-2-yl)phenyl]-2-(methylamino)-7-oxo-pyrido[2,3-d]pyrimidin-8-yl]-N-[(3R)-pyrrolidin-3-yl]acetamide]
- Ki: 12.4 nM

Compound: CCNc1ncc2cc(-c3ccc(-c4cncc(C)n4)cc3Cl)c(=O)n(CC[C@@H]3[C@H]4CNC[C@@H]34)c2n1 [Example I-65, 8-(2-((1R,5S,6s)-3-Azabicyclo[3.1.0]hexan-6-yl)ethyl)-6-(2-chloro-4-(6-methylpyrazin-2-yl)phenyl)-2-(ethylamino)pyrido[2,3-d]pyrimidin-7(8H)-one]
- Ki: 14.5 nM

Compound: CNc1ncc2cc(-c3ccc(-c4cccc(C)n4)cc3C)c(=O)n(CCOCCN)c2n1 [Example I-97, 8-[2-(2-Aminoethoxy)ethyl]-2-(methylamino)-6-[2-methyl-4-(6-methyl-2-pyridyl)phenyl]pyrido[2,3-d]pyrimidin-7-one]
- Ki: 3.6 nM

Compound: CNc1ncc2cc(-c3ccc(-c4cccc(C)n4)cc3Cl)c(=O)n(CCOC3CN(C)C3)c2n1 [Example I-196, 6-[2-chloro-4-(6-methyl-2-pyridyl)phenyl]-2-(methylamino)-8-[2-(1-methylazetidin-3-yl)oxyethyl]pyrido[2,3-d]pyrimidin-7-one]
- Ki: 18.5 nM

Compound: CNc1ncc2cc(-c3ccc(-c4cncc(C)n4)cc3Cl)c(=O)n(CC[C@@H](O)CO)c2n1 [Example I-80, 6-(2-Chloro-4-(6-methylpyrazin-2-yl)phenyl)-8-(3,4-dihydroxybutyl)-2-(methylamino)pyrido[2,3-d]pyrimidin-7(8H)-one]
- Ki: 104 nM

Compound: CNc1ncc2cc(-c3ccc(-c4cccc(C)n4)cc3Cl)c(=O)n(CC3CNCCS3(=O)=O)c2n1 (single isomer, unassigned) [I-197 Isomer B, 6-[2-chloro-4-(6-methyl-2-pyridyl)phenyl]-8-[(1,1-dioxo-1 4-thiazinan-2-yl)methyl]-2-(methylamino)pyrido[2,3-d]pyrimidin-7-one]
- Ki: 31.6 nM

Compound: Cc1cccc(-c2ccc(-c3cc4cnc(NC5COC5)nc4n(CC[C@H]4OC[C@@H](N)CO4)c3=O)c(Cl)c2)n1 [Example I-135, 8-[2-(5-amino-1,3-dioxan-2-yl)ethyl]-6-[2-chloro-4-(6-methyl-2-pyridyl)phenyl]-2-(oxetan-3-ylamino)pyrido[2,3-d]pyrimidin-7-one]
- Ki: 0.654 nM

Compound: CNc1ncc2cc(-c3ccc(-c4cccc(C)n4)cc3C)c(=O)n(CCC3CNCCO3)c2n1 (single isomer, unassigned) [Example I-110]
- Ki: 3 nM

Compound: CNc1ncc2cc(-c3ccc(-c4cccc(C)n4)cc3Cl)c(=O)n(CC3(C#N)CCNCC3)c2n1 [Example I-169, 4-[[6-[2-chloro-4-(6-methyl-2-pyridyl)phenyl]-2-(methylamino)-7-oxo-pyrido[2,3-d]pyrimidin-8-yl]methyl]piperidine-4-carbonitrile]
- Ki: 12 nM

Compound: CCNc1ncc2cc(-c3ccc(-c4cncc(C)n4)cc3Cl)c(=O)n(CC(=O)N3CCOCC3)c2n1 [Example I-26, 6-[2-chloro-4-(6-methylpyrazin-2-yl)phenyl]-2-(ethylamino)-8-(2-morpholino-2-oxo-ethyl)pyrido[2,3-d]pyrimidin-7-one]
- Ki: 137 nM

Compound: CNc1ncc2cc(-c3ccc(-c4cccc(C)n4)cc3C)c(=O)n(CCN3CCOCC3)c2n1 [Example I-165, 2-(Methylamino)-6-[2-methyl-4-(6-methyl-2-pyridyl)phenyl]-8-(2-morpholinoethyl)pyrido[2,3-d]pyrimidin-7-one]
- Ki: 16.7 nM

Compound: CNc1ncc2cc(-c3ccc(-c4cccc(C)n4)cc3Cl)c(=O)n(CCOCCN)c2n1 [Example I-96, 8-[2-(2-Aminoethoxy)ethyl]-[2-chloro-4-(6-methyl-2-pyridyl)phenyl]-2-(methylamino)pyrido[2,3-d]pyrimidin-7-one]
- Ki: 1.4 nM

Compound: CNc1ncc2cc(-c3ccc(-c4cncc(C)n4)cc3Cl)c(=O)n(CC[C@H]3OC[C@H](N)CO3)c2n1 [Example I-177, 8-[2-(5-amino-1,3-dioxan-2-yl)ethyl]-6-[2-chloro-4-(6-methylpyrazin-2-yl)phenyl]-2-(methylamino)pyrido[2,3-d]pyrimidin-7-one]
- Ki: 6.82 nM

Compound: CCNc1ncc2cc(-c3ccc(-c4cncc(C)n4)cc3Cl)c(=O)n(CCC3CCNC3)c2n1 (stereo not shown) [Example I-57, 6-(2-Chloro-4-(6-methylpyrazin-2-yl)phenyl)-2-(ethylamino)-8-(2-(pyrrolidin-3-yl)ethyl)pyrido[2,3-d]pyrimidin-7(8H)-one]
- Ki: 4.1 nM

Compound: Cc1cccc(-c2ccc(-c3cc4cnc(NC5COC5)nc4n(CCCO)c3=O)c(C)c2)n1 [Example I-168, 8-(3-hydroxypropyl)-6-[2-methyl-4-(6-methyl-2-pyridyl)phenyl]-2-(oxetan-3-ylamino)pyrido[2,3-d]pyrimidin-7-one]
- Ki: 15.7 nM

Compound: Cc1cccc(-c2ccc(-c3cc4cnc(NC(C)C)nc4n(C[C@H]4CC[C@H](N)CC4)c3=O)c(Cl)c2)n1 [Example I-32, 8-[(4-aminocyclohexyl)methyl]-6-[2-chloro-4-(6-methyl-2-pyridyl)phenyl]-2-(isopropylamino)pyrido[2,3-d]pyrimidin-7-one]
- Ki: 0.5 nM

Compound: CCNc1ncc2cc(-c3ccc(-c4cncc(C)n4)cc3Cl)c(=O)n(C3CCN(C(=O)CN)CC3)c2n1 [Example I-29, 8-(1-(2-Aminoacetyl)piperidin-4-yl)-6-(2-chloro-4-(6-methylpyrazin-2-yl)phenyl)-2-(ethylamino)pyrido[2,3-d]pyrimidin-7(8H)-one]
- Ki: 17.1 nM

Compound: Cc1cccc(-c2ccc(-c3cc4cnc(NCC(F)F)nc4n(CCC4CNCCO4)c3=O)c(C)c2)n1 (racemic) [Example I-126, 2-(2,2-Difluoroethylamino)-6-[2-methyl-4-(6-methyl-2-pyridyl)phenyl]-8-(2-morpholin-2-ylethyl)pyrido[2,3-d]pyrimidin-7-one]
- Ki: 2.5 nM

Compound: CNc1ncc2cc(-c3ccc(-c4cccc(C)n4)cc3Cl)c(=O)n(CCC3CNCCO3)c2n1 (single isomer, unassigned) [Example I-125, 6-(2-chloro-4-(6-methylpyridin-2-yl)phenyl)-2-(methylamino)-8-(2-(morpholin-2-yl)ethyl)pyrido[2,3-d]pyrimidin-7(8H)-one]
- Ki: 4.7 nM

Compound: CNc1ncc2cc(-c3ccc(-c4cncc(C)n4)cc3Cl)c(=O)n(CC(=O)N3CCC(O)C3)c2n1 (stereo not shown) [Example I-157, 6-[2-chloro-4-(6-methylpyrazin-2-yl)phenyl]-8-[2-(3-hydroxypyrrolidin-1-yl)-2-oxo-ethyl]-2-(methylamino)pyrido[2,3-d]pyrimidin-7-one]
- Ki: 44.9 nM
